One test concerns the target LPA1 (Homo sapiens, UniProt Q92633). As to the kind of experiment: LPA1 Migration Assay (Oris). In kind it is cell-based. Conditions: read-out: Cell Migration EC50. The arrangement: host or cells: primary fibroblasts (lung, dermal), HFL-1, 3T3 and CHO cells expressing LPA1R. An excerpt: LPA1 Migration Assay Migration of primary fibroblasts (including lung, dermal), HFL-1, 3T3 and CHO cells expressing LPA1R were monitored using the Oris™ assay (Platypus Technologies, Madison, Wis.). These cells were dye (Cell Tracker Green™) loaded and serum starved for 12-24 hrs. In response to chemoattractants such as LPA and serum, the cells migrated inward in to the exclusion (detection) zone. After fixing, fluorescent cells in the detection zone were counted using a high content reader. The ability of LPA1 antagonists to inhibit cell migration is quantified by plotting cell number vs. compound concentration and curve fitting the resulting dose-response curve to a 4 parameter logistic function.

The target of the next test is T1, LPA/S1P GPCR of interest (Homo sapiens, UniProt Q92633).
T1 construct: host or cells: CHO
T1 sequence (Q92633 whole entry): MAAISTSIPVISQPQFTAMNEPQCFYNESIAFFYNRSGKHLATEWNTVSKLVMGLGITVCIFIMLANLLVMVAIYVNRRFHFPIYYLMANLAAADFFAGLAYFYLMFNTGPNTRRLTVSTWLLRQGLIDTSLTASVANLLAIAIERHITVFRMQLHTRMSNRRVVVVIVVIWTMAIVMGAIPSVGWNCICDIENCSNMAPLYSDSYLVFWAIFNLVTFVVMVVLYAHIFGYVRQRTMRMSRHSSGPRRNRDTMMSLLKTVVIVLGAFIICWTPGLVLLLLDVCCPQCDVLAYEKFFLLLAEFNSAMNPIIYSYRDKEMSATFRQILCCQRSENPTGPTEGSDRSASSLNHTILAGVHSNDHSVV
Nature of the test: Beta-Arrestin based assay (PathHunter). In kind it is cell-based. The method, boiled down: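 EA Parental CHO cells (DiscoverX) were transfected with FuGENE (Roche) using CMV promoter-driven DNA constructs encoding the LPA/S1P GPCR of interest fused to a ProLink tag. Beta-arrestin recruitment in agonist mode was assessed 24-48 hrs later with PathHunter kits. Tests ran in quadruplicate in white 384 well plates, and end point luminescence was fit to a 4 parameter logistic function.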

pEC50: −log10 of the molar value.

LPA1, sequence (Q92633 whole entry): as above

Regarding `C[C@@H](OC(=O)Nc1c(-c2cc3sc(-c4ccc(CC(=O)O)s4)cc3s2)nnn1C)c1ccccc1` [IT179], the pEC50 at LPA1 is below 6.30; on LPA/S1P GPCR of interest, 6.30 to 7.30.

As to `C[C@@H](OC(=O)Nc1c(-c2cc3sc(-c4ccc(CC(=O)O)cc4N)cc3s2)cnn1C)c1ccccc1` [IT180], the pEC50 on LPA1 and at LPA/S1P GPCR of interest was below 6.30 in each case.

Take `C[C@@H](OC(=O)Nc1c(-c2cc3sc(-c4ccc(CC(=O)O)cc4N)cc3s2)nnn1C)c1ccccc1` [IT181]: the pEC50 on LPA1 and at LPA/S1P GPCR of interest was below 6.30 throughout.

`Cc1nsc(-c2cc3sc(-c4ccc(CC(=O)O)cc4N)cc3s2)c1NC(=O)O[C@H](C)c1ccccc1` [IT182]: the pEC50 at LPA1 and at LPA/S1P GPCR of interest was below 6.30 throughout.

As to `COc1cc(CC(=O)O)ccc1-c1cc2sc(-c3nnn(C)c3NC(=O)O[C@H](C)c3ccccc3)cc2s1` [IT183], the pEC50 on LPA1 and at LPA/S1P GPCR of interest was below 6.30 each time.

`Cc1nsc(-c2cc3sc(-c4cnc(C5(C(=O)O)CC5)s4)cc3s2)c1NC(=O)O[C@H](C)c1ccccc1` [IT184]: the pEC50 on LPA1 and at LPA/S1P GPCR of interest was below 6.30 in each case.

On to `Cc1nsc(-c2cc3sc(-c4ccc(CC(=O)O)nc4)cc3s2)c1NC(=O)O[C@H](C)c1ccccc1` [IT185], for which the pEC50 on LPA1 and at LPA/S1P GPCR of interest was below 6.30 each time.

Consider `C[C@@H](OC(=O)Nc1c(-c2cc3sc(-c4cc(Cl)c(CC(=O)O)cc4F)cc3s2)nnn1C)c1ccccc1` [IT186], for which the pEC50 on LPA1 and on LPA/S1P GPCR of interest was below 6.30 in each case.

Regarding `C[C@@H](OC(=O)Nc1c(-c2cc3sc(-c4cc(Cl)c(CC(=O)O)cc4F)cc3s2)cnn1C)c1ccccc1` [IT187], the pEC50 at LPA1 and at LPA/S1P GPCR of interest was below 6.30 each time.

On to `C[C@@H](OC(=O)Nc1c(-c2cc3sc(-c4ccc5[nH]cc(CC(=O)O)c5c4)cc3s2)cnn1C)c1ccccc1` [IT188], for which the pEC50 on LPA1 is below 6.30; at LPA/S1P GPCR of interest it was 6.30 to 7.30.

Consider `C[C@@H](OC(=O)Nc1c(-c2cc3sc(-c4cnc(C5(C(=O)O)CC5)s4)cc3s2)nnn1C)c1ccccc1` [IT189], for which the results for the pEC50 at LPA1 and at LPA/S1P GPCR of interest were below 6.30 and 6.30 to 7.30, respectively.

As to `CCOc1cc(CC(=O)O)ccc1-c1cc2sc(-c3cnn(C)c3NC(=O)O[C@H](C)c3ccccc3)cc2s1` [IT190], the pEC50 on LPA1 and at LPA/S1P GPCR of interest was below 6.30 in each case.

Turning to `CCOc1cc(CC(=O)O)ccc1-c1cc2sc(-c3nnn(C)c3NC(=O)O[C@H](C)c3ccccc3)cc2s1` [IT191], the pEC50 on LPA1 and on LPA/S1P GPCR of interest was below 6.30 each time.

With `CCOc1cc(CC(=O)O)ccc1-c1cc2sc(-c3snc(C)c3NC(=O)O[C@H](C)c3ccccc3)cc2s1` [IT192], the pEC50 at LPA1 and at LPA/S1P GPCR of interest was below 6.30 in each case.

In the case of `Cc1nsc(-c2ccc(NC(=O)c3csc(C4(C(=O)O)CC4)c3)cc2)c1NC(=O)O[C@H](C)c1ccccc1` [IT193], the results for the pEC50 on LPA1 and at LPA/S1P GPCR of interest were below 6.30 and 6.30 to 7.30, respectively.

With `Cc1noc(-c2ccc(-c3ccc(NC(=O)OC(C)(C)C)cc3)cc2)c1NC(=O)O[C@H](C)c1ccccc1` [IT194], the pEC50 on LPA1 and at LPA/S1P GPCR of interest was below 6.30 in each case.

As to `Cc1noc(-c2ccc(-c3ccc(NS(C)(=O)=O)cc3)cc2)c1NC(=O)O[C@H](C)c1ccccc1` [IT195], the figures for the pEC50 on LPA1 and at LPA/S1P GPCR of interest were below 6.30 and 6.30 to 7.30, respectively.

As to `Cc1nsc(-c2cc(F)c(-c3nc4sc(C5(C(=O)O)CC5)cc4s3)cc2F)c1NC(=O)O[C@H](C)c1ccccc1` [IT201], the pEC50 is 6.30 to 7.30 on LPA1 and above 7.30 at LPA/S1P GPCR of interest.

Consider `Cc1noc(-c2ccc(-c3ccc(Oc4ncncc4C(=O)O)cc3)cc2)c1NC(=O)O[C@H](C)c1ccccc1` [IT230], for which the pEC50 at LPA1 is 6.30 to 7.30; on LPA/S1P GPCR of interest, above 7.30.

Turning to `Cc1noc(-c2ccc(-c3ccc(Oc4nnccc4C(=O)O)cc3)cc2)c1NC(=O)O[C@H](C)c1ccccc1` [IT231], the pEC50 on LPA1 and at LPA/S1P GPCR of interest was 6.30 to 7.30 each time.

For the molecule `Cc1noc(-c2ccc(-c3ccc(Oc4nccnc4C(=O)O)cc3)cc2)c1NC(=O)O[C@H](C)c1ccccc1` [IT232], the pEC50 is 6.30 to 7.30 at LPA1 and above 7.30 on LPA/S1P GPCR of interest.

For the molecule `C[C@@H](OC(=O)Nc1c(-c2cc3sc(-c4ccc(C5(C(=O)O)CC5)cc4F)cc3s2)nnn1C)c1ccccc1` [IT246], the values for the pEC50 at LPA1 and at LPA/S1P GPCR of interest were 6.30 to 7.30 and above 7.30, respectively.

As for `Cc1noc(-c2ccc(-c3ccc(Oc4cnccc4C(=O)O)cc3)cc2)c1NC(=O)O[C@H](C)c1ccccc1` [IT257], the pEC50 on LPA1 is 6.30 to 7.30; at LPA/S1P GPCR of interest, above 7.30.

Turning to `Cc1noc(-c2ccc(-c3ccc(Oc4ccccc4C(=O)O)nn3)cc2)c1NC(=O)O[C@H](C)c1ccccc1` [IT259], the pEC50 was below 6.30 on LPA1 and 6.30 to 7.30 on LPA/S1P GPCR of interest.

With `Cc1cc(C2(C(=O)O)CC2)ccc1-c1cc2sc(-c3cnn(C)c3NC(=O)O[C@H](C)c3ccccc3)cc2s1` [IT260], the pEC50 on LPA1 was 6.30 to 7.30; at LPA/S1P GPCR of interest, above 7.30.

`Cc1nsc(-c2cc3sc(-c4cc(F)c(C5(C(=O)O)CC5)c(F)c4)cc3s2)c1NC(=O)O[C@H](C)c1ccccc1` [IT263]: the results for the pEC50 at LPA1 and at LPA/S1P GPCR of interest were 6.30 to 7.30 and above 7.30, respectively.

In the case of `C[C@@H](OC(=O)Nc1c(-c2cc3sc(-c4ccc(C5(C(=O)O)CC5)c(Cl)c4)cc3s2)nnn1C)c1ccccc1` [IT266], the pEC50 at LPA1 was 6.30 to 7.30; on LPA/S1P GPCR of interest, above 7.30.

For the molecule `C[C@@H](OC(=O)Nc1c(-c2cc3sc(-c4ccc(C5(C(=O)O)CC5)nc4)cc3s2)nnn1C)c1ccccc1` [IT270], the pEC50 on LPA1 is 6.30 to 7.30; at LPA/S1P GPCR of interest, above 7.30.

`C[C@@H](OC(=O)Nc1c(-c2cc(F)c(-c3nc4sc(C5(C(=O)O)CC5)cc4s3)cc2F)cnn1C)c1ccccc1` [IT279]: the pEC50 at LPA1 is 6.30 to 7.30; on LPA/S1P GPCR of interest, above 7.30.

Turning to `Cc1nsc(-c2cc(Cl)c(-c3cc4sc(C5(C(=O)O)CC5)cc4s3)cc2F)c1NC(=O)O[C@H](C)c1ccccc1` [IT281], the pEC50 is 6.30 to 7.30 on LPA1 and above 7.30 on LPA/S1P GPCR of interest.

`C[C@@H](OC(=O)Nc1c(-c2cc3sc(-c4cc(Cl)c(C5(C(=O)O)CC5)cc4F)cc3s2)cnn1C)c1ccccc1` [IT284]: the pEC50 at LPA1 and on LPA/S1P GPCR of interest was 6.30 to 7.30 throughout.

Consider `C[C@@H](OC(=O)Nc1c(-c2cc3sc(-c4cc(Cl)c(C5(C(=O)O)CC5)cc4F)cc3s2)nnn1C)c1ccccc1` [IT285], for which the pEC50 at LPA1 is 6.30 to 7.30; at LPA/S1P GPCR of interest, above 7.30.

`Cc1cc(C2(C(=O)O)CC2)ccc1-c1cc2sc(-c3nnn(C)c3NC(=O)O[C@H](C)c3ccccc3)cc2s1` [IT291]: the pEC50 was 6.30 to 7.30 on LPA1 and above 7.30 on LPA/S1P GPCR of interest.

In the case of `C[C@@H](OC(=O)Nc1c(-c2cc3sc(-c4ccc(C5(C(=O)O)CC5)c(F)c4)cc3s2)cnn1C)c1ccccc1` [IT295], the pEC50 was 6.30 to 7.30 on LPA1 and above 7.30 at LPA/S1P GPCR of interest.

Consider `C[C@@H](OC(=O)Nc1c(-c2cc3sc(-c4ccc(C5(C(=O)O)CC5)c(F)c4)cc3s2)nnn1C)c1ccccc1` [IT296], for which the pEC50 at LPA1 is 6.30 to 7.30; at LPA/S1P GPCR of interest, above 7.30.

`Cc1nnn(-c2ccc(-c3ccc(Oc4ccccc4C(=O)O)cc3)cc2)c1NC(=O)O[C@H](C)c1ccccc1` [IT310]: the figures for the pEC50 on LPA1 and at LPA/S1P GPCR of interest were below 6.30 and 6.30 to 7.30, respectively.

Turning to `C[C@@H](OC(=O)Nc1c(C#Cc2cc(F)c(OC3(C(=O)O)CC3)c(F)c2)cnn1C)c1ccccc1` [IT311], the pEC50 on LPA1 and at LPA/S1P GPCR of interest was 6.30 to 7.30 each time.

The values are drawn from patent US20140213538A1, “LYSOPHOSPHATIDIC ACID RECEPTOR ANTAGONISTS” (InterMune, Inc., priority 2013, published 2014).
